Data as given in US20260265271A1, “Cereblon Ligands and Uses Thereof” (REGENTS OF THE UNIVERSITY OF MICHIGAN, priority 2022, published 2026).
Counter-ions that a name gives are not always drawn.

How the values were obtained:
ER [1] = molecular target: T1, ER (Homo sapiens, UniProt P03372); assay: ER degradation by in-cell western (ICW), MCF7 cells; format: cell-based; design: endogenous in cells; host or cells: MCF-7; conditions: for Dmax: MCF7, read-out: MCF7 Dmax (%); for DC50: MCF7 cells, ER in-cell western, 16 hours
Procedure: (§1) ERa degradative activity of compounds can be assessed in MCF-7 and T47D Cells. MCF-7 and T47D cell are seeded and are subsequently treated with the compounds at certain concentrations (e.g., 0.02 to 300 nM). DMSO can be used as vehicle control. Cells are fixed and are blocked with Intercept (PBS) Blocking Buffer (e.g., Li—COR, Odyssey Blocking Buffer), and are stained with ER (e.g., 1:500, Cell signaling) primary antibody for overnight at cold room. Secondary Antibody (e.g., IRDye 800CW Goat anti-Rabbit IgG) and CellTag 700 Stain are added in Intercept (PBS) Blocking Buffer. Finally, cell plate is placed in incubator to dry. Image and signal were captured on Odyssey@DLx Imaging System.
(§2) In-cell western blot analysis. Cells are seeded in multi-well plates (e.g., at 40,000 or 10,000 cells/well). Diluted compounds at certain concentration are added (final 0.5% DMSO) and cells are incubated for certain period of time (e.g., 16 hours). Formaldehyde (e.g., PBS:FA=9:1) is added and followed by washing with PBS. The cells are blocked with Licor blocking buffer (Li-Cor). The relative ER percentage in treated cells were obtained by comparing the values of treated wells to those in untreated and DMSO-treated wells as 100%.
(§3) In-cell western blot analysis. a. seed cells in black-sided/clear bottom 96- or 384-well plates at 40,000 or 10,000 cells/well, overnight; b. add diluted compounds (final 0.5% DMSO), 16 hours. […] RT 2 h, gentle shaking. Negative control: cells plus secondary antibodies (no primary antibodies); e. wash×4 with PBS +0.05-0.1% Tween 20, gentel shaking; f. anti-rabbit-680 and anti-mouse-800 (both 1:1000 in LiCor block +0.05% Tween20, RT 1 h, gentle shaking, no light. LI-COR: 0.2% to reduce background; g. wash×4 with PBS+0.05% Tween 20, gental shaking; h. add 100 μL or 25 μL of PBS to each well and read on CLX plate reader. The relative ER percentage in treated cells were obtained by comparing the values of treated wells to those in untreated and DMSO-treated wells as 100%.

CRBN/DDB1 = CRBN/DDB1 (Homo sapiens, UniProt Q96SW2); assay: biochemical
Procedure: The CRBN-DDB1 binding potency of the present disclosure was determined using HTRF assay technology (Perkin Elmer). Compounds are serially diluted and are transferred multi-well plate. […] After one hour incubation at room temperature, the HTRF signals were read on Envision reader (Perkin Elemer).
The binding potency was determined using HTRF assay technology (Perkin Elmer). Compounds were serially diluted in DMSO and 0.2 μL volume was transferred to white 384-well plate. […] After one hour incubation at room temperature, the HTRF signals were read on Envision reader (Perkin Elemer).

ER [2] = molecular target: T1, ER; assay: ER degradation by in-cell western (ICW), T47D cells; format: cell-based; design: endogenous in cells; host or cells: T47D; conditions: for DC50: T47D cells, ER in-cell western, 16 hours; for Dmax: T47D, read-out: T47D Dmax (%)
Procedure: as §1, §2, §3

T1 sequence (P03372 whole entry): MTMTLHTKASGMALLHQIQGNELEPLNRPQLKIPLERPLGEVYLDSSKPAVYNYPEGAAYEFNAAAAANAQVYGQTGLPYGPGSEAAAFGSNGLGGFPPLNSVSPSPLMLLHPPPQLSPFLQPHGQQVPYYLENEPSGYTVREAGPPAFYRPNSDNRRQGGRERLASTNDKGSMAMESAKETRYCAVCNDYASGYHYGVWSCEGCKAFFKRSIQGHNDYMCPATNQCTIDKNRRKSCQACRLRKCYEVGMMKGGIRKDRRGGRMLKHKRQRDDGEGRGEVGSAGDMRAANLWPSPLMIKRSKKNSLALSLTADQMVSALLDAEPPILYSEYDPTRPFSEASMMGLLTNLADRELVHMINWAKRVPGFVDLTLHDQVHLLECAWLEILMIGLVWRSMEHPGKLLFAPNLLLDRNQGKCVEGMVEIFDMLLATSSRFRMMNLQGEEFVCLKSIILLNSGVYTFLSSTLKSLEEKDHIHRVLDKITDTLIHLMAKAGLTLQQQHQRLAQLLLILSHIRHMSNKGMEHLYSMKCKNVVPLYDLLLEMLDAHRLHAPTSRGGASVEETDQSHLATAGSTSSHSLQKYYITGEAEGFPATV
CRBN/DDB1, sequence (Q96SW2 whole entry): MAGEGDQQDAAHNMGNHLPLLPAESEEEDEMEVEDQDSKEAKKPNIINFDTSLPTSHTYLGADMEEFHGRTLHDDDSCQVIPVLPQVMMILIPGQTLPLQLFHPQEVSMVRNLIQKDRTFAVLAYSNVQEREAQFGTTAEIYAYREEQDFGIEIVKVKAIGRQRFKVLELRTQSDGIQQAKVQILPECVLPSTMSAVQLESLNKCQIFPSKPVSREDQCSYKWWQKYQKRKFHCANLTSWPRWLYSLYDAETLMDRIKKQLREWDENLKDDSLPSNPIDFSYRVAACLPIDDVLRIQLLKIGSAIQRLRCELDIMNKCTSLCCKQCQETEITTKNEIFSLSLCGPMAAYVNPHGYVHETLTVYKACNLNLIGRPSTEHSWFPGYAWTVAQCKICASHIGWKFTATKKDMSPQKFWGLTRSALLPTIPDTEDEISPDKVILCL
CRBN/DDB1, sequence (Q16531 whole entry, further chain): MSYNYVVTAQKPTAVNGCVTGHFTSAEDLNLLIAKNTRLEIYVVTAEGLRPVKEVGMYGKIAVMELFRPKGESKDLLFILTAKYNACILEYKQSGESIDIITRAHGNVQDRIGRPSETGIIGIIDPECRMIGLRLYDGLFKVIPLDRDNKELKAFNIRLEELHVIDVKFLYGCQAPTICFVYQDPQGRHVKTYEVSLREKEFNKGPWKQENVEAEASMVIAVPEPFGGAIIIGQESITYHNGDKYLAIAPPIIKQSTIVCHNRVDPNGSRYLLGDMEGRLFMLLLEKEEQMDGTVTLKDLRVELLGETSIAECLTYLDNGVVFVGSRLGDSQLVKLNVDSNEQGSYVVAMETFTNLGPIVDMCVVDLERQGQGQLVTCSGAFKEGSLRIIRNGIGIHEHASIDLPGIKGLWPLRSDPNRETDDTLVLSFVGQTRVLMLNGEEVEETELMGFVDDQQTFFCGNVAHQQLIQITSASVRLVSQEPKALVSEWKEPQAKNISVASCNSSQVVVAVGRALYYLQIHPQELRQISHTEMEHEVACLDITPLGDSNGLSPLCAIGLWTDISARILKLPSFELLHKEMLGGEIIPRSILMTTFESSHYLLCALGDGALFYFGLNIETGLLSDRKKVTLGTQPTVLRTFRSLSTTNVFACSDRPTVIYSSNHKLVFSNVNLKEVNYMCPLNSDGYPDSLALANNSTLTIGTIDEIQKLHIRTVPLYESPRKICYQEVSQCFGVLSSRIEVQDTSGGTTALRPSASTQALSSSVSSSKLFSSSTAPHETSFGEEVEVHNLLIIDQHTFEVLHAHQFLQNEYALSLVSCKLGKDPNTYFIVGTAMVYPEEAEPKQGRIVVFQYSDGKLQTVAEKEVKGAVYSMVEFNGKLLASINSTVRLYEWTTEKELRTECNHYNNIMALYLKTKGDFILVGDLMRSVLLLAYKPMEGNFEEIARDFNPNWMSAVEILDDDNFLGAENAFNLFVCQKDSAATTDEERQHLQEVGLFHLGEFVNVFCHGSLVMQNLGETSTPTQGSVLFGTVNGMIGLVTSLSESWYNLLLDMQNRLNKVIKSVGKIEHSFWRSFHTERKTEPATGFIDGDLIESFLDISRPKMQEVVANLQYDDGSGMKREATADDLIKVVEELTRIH

SMILES	Dmax (ER [1]) [%]	DC50 (ER [1]) [nM]	IC50 (CRBN/DDB1) [nM]	DC50 (ER [2]) [nM]	Dmax (ER [2]) [%]
O=C1CC[C@H](N2Cc3cc4c(cc3C2=O)OC[C@@H]2CN(CC3CC5(CCN(c6ccc([C@@H]7c8ccc(O)cc8OC[C@@H]7c7ccccc7)cc6)CC5)C3)CCN42)C(=O)N1 [CHR-A59, (S)-3-((S)-3-((7-(4-((3S,4R)-7-hydroxy-3-phenylchroman-4-yl)phenyl)-7-azaspiro[3.5]nonan-2-yl)methyl)-8-oxo-1,2,3,4,4a,5,8,10-octahydro-9H-pyrazino[1′,2′:4,5][1,4]oxazino[2,3-f]isoindol-9-yl)piperidine-2,6-dione]	50 to 75	1 to 10			
O=C1CC[C@H](NC(=O)c2cc3c(cc2F)N2CCNC[C@H]2CO3)C(=O)N1 [Compound A1, (S)—N—((S)-2,6-dioxopiperidin-3-yl)-9-fluoro-1,2,3,4,4a,5-hexahydrobenzo[b]pyrazino[1,2-d][1,4]oxazine-8-carboxamide hydrochloride]			21800		
CN1CCN2c3cc(F)c(C(=O)N[C@H]4CCC(=O)NC4=O)cc3OC[C@@H]2C1 [Compound A2, (S)—N—((S)-2,6-dioxopiperidin-3-yl)-9-fluoro-3-methyl-1,2,3,4,4a,5-hexahydrobenzo[b]pyrazino[1,2-d][1,4]oxazine-8-carboxamide]			3640		
CC(C)(C)OC(=O)N1CCN2c3cc4c(cc3OC[C@@H]2C1)C(=O)N(C1CCC(=O)NC1=O)C4 (stereo partly drawn) [Compound A3, tert-butyl (4aS)-9-(2,6-dioxopiperidin-3-yl)-8-oxo-1,2,4a,5,9,10-hexahydro-8H-pyrazino[1′,2′:4,5][1,4]oxazino[2,3-f]isoindole-3(4H)-carboxylate]			330		
C[C@@H]1Cc2c([nH]c3ccccc23)[C@@H](c2cnc(N3CCC4(CC3)CC(CN3CCN5c6ccc(C(=O)N[C@H]7CCC(=O)NC7=O)nc6OC[C@H]5C3)CO4)nc2)N1CC(F)F (stereo partly drawn) [IND-A63, (4aR)-3-((8-(5-((1R,3R)-2-(2,2-difluoroethyl)-3-methyl-2,3,4,9-tetrahydro-1H-pyrido[3,4-b]indol-1-yl)pyrimidin-2-yl)-1-oxa-8-azaspiro[4.5]decan-3-yl)methyl)-N—((S)-2,6-dioxopiperidin-3-yl)-1,2,3,4,4a,5-hexahydropyrazino[1,2-d]pyrido[2,3-b][1,4]oxazine-8-carboxamide]	50 to 75	1 to 10		1 to 10	50 to 75
O=C1CC[C@H](N2Cc3cc4c(cc3C2=O)OC[C@@H]2CNCCN42)C(=O)N1 [Compound A8, (S)-3-((S)-8-oxo-3,4,4a,5-tetrahydro-1H-pyrazino [1′,2′:4,5][1,4]oxazino[2,3-f]isoindol-9(2H,8H,10H)-yl)piperidine-2,6-dione hydrochloride]			430		
C[C@@H]1Cc2c(ccc3[nH]ncc23)[C@@H](c2ccc(N3CCC4(CC3)CC(CN3CCN5c6cc7c(cc6OC[C@@H]5C3)C(=O)N([C@@H]3CCC(=O)NC3=O)C7)C4)cn2)N1CC1(F)CC1 [IDZ-A12, (R)-3-((S)-3-((7-(6-((6S,8R)-7-((1-fluorocyclopropyl)methyl)-8-methyl-6,7,8,9-tetrahydro-3H-pyrazolo[4,3-f]isoquinolin-6-yl)pyridin-3-yl)-7-azaspiro[3.5]nonan-2-yl)methyl)-8-oxo-1,2,3,4,4a,5,8,10-octahydro-9H-pyrazino[1′,2′:4,5][1,4]oxazino[2,3-f]isoindol-9-yl)piperidine-2,6-dione]	> 75	< 1		< 1	> 75
O=C1CC[C@@H](N2Cc3cc4c(cc3C2=O)OC[C@H]2CN(CC3CCC5(CC3)CN(c3ccc([C@H]6c7ccc(O)cc7OC[C@H]6c6ccccc6)cc3)C5)CCN42)C(=O)N1 [CHR-A118, (R)-3-((R)-3-((2-(4-((3R,4S)-7-hydroxy-3-phenylchroman-4-yl)phenyl)-2-azaspiro[3.5]nonan-7-yl)methyl)-8-oxo-1,2,3,4,4a,5,8,10-octahydro-9H-pyrazino[1′,2′:4,5][1,4]oxazino[2,3-f]isoindol-9-yl)piperidine-2,6-dione]		1 to 10			
